How the values were obtained:
Annual Rye = experiment: Laboratory trial: Annual Rye seeds in trays of potting soil, sprayed every other day; format: in vivo; conditions: averages of 74 plants per tray after 1 week; for Root Length, percent inc (versus sugar solution): increase over sugar solution (2.9 cm); for Blade Length, percent increase (versus sugar solution): increase over sugar solution (6.3 cm); for Blade Length / Root Length: ingredient added to standard sugar solution (Ni 0.003% w/w, Co 0.003% w/w, nitrogen-15 0.00001% w/w), spray 12 ml per square meter every other day
Description: Some characteristics of the plant growth regulating composition according to the invention are illustrated by the following examples. The laboratory trial involved planting Annual Rye seeds in trays of commercially available potting soil. The seed density on the trays was 358 grams per square meter. The volume of each spray was 12 ml per square meter after the grass emerged. The spray frequency was every other day. The following ingredients were added at these concentrations to a standard sugar solution: Ni 0.003% w/w (Nickel), Co 0.003% w/w (cobalt) and nitrogen-15 0.00001% w/w.

Common Bermuda = experiment: Trial on turf, sprayed once with nitrogen-15 spray solutions; format: in vivo
Description: A trial on turf was conducted on Common Bermuda. The turf was sprayed once with spray solutions that contained four concentrations of nitrogen-15 ammonium sulfate. The concentrations ranged from: 0.001% though 0.004% w/w. The nitrogen-15 was mixed with a sugar solution as in the laboratory trial.

Nitrogen-15
Root Length, percent inc (versus sugar solution) (Annual Rye): 20.70% | Blade Length, percent increase (versus sugar solution) (Annual Rye): 25.40% | Blade Length (Annual Rye): 7.9 cm | Root Length (Annual Rye): 3.5 cm

[Co] [Co, cobalt]
Root Length, percent inc (versus sugar solution) (Annual Rye): 41.40% | Blade Length, percent increase (versus sugar solution) (Annual Rye): 11.10% | Blade Length (Annual Rye): 7.0 cm | Root Length (Annual Rye): 4.1 cm

[Ni] [Ni, Nickel]
Root Length, percent inc (versus sugar solution) (Annual Rye): 41.40% | Blade Length, percent increase (versus sugar solution) (Annual Rye): 15.90% | Blade Length (Annual Rye): 7.3 cm | Root Length (Annual Rye): 4.1 cm

O=S(=O)(O)O.[15NH3].[15NH3] [nitrogen-15 ammonium sulfate]
visual color of turf plot (Common Bermuda; plot sprayed once with 0.004% w/w in sugar solution, four concentrations 0.001% through 0.004% w/w compared): darkest green | Percent increase in leaf length (Common Bermuda; turf sprayed once, 0.001% through 0.004% w/w in sugar solution): the same as the laboratory trial
